Among the data in patent US9981944B2, “GDF-8 inhibitors” (Rigel Pharmaceuticals, Inc., priority 2015, dated 2018) are IC50 values, retold here.

For one test, the target named is HIS-TGFβR2 WT (Homo sapiens (Human), UniProt P37173). Put plainly: HTRF probe displacement assay, HIS-TGFβR2 WT. The test is classed as binding. To be noted: 1 nM HIS-TGFβR2 WT, 1 hour at room temperature, read-out: TGFBR2WT IC50. The protocol:
(§1) Compounds were dissolved at 10 mM in dimethylsulfoxide (DMSO) and evaluated at eleven concentrations. IC50 values were derived by non-linear regression analysis.

In the next test the target is HIS-TGFβR1 T204D (Homo sapiens (Human), UniProt P36897, T204D). Briefly: HTRF probe displacement assay, HIS-TGFβR1 T204D. The format is binding. To be noted: 1 nM HIS-TGFβR1 T204D, 1 hour at room temperature, read-out: TGFBR1T204D IC50. The protocol:
as §1
A general note: TR-FRET usually uses a lanthanide donor and a delayed reading to cut background.

Some results are limits rather than exact numbers.

Chain of HIS-TGFβR2 WT (P37173 23-567): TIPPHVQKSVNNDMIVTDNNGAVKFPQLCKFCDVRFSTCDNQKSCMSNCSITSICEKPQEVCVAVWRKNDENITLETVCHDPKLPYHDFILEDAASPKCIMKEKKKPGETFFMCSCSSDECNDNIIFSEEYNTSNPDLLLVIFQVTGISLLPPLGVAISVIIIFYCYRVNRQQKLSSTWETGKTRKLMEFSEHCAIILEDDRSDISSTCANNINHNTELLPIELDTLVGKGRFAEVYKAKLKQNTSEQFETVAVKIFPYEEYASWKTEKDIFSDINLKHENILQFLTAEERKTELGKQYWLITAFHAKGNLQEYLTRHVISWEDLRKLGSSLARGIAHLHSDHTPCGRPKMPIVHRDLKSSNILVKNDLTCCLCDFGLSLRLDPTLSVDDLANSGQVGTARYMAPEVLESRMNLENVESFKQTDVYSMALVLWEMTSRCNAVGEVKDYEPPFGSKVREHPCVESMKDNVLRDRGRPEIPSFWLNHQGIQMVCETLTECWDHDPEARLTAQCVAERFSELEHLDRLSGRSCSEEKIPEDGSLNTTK
Chain of HIS-TGFβR1 T204D (P36897 34-503 T204D): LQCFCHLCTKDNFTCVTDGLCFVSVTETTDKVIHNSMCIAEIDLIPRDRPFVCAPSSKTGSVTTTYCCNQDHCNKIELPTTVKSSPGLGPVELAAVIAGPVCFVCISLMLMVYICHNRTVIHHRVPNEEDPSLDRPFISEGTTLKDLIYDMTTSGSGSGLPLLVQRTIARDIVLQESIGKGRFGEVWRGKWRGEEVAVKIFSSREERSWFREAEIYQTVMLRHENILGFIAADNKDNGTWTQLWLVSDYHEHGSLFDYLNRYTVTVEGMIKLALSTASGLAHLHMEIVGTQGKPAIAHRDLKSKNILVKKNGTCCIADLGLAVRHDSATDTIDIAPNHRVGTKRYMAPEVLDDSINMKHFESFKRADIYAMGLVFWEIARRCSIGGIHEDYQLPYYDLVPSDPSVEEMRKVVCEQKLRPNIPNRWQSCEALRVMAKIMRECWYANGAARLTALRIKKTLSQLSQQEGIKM

Turning to `CS(=O)(=O)Nc1cccc(-c2ncccc2-c2ccc3ncc(C#N)n3c2)n1` [Compound 44, N-(3′-(3-cyanoimidazo[1,2-a]pyridin-6-yl)-[2,2′-bipyridin]-6-yl)methanesulfonamide], the IC50 on HIS-TGFβR2 WT is > 15000 nM; at HIS-TGFβR1 T204D it was 1980 nM.

As for `Cc1nc(-c2ncccc2-c2ccc3nccnc3c2)ccc1F` [Compound 112, 6-(5′-fluoro-6′-methyl-[2,2′-bipyridin]-3-yl)quinoxaline], the figures for the IC50 at HIS-TGFβR2 WT and on HIS-TGFβR1 T204D were > 15000 nM and 12 nM, respectively.

Regarding `Cc1cccc(-c2ncccc2-c2ccc3ncc(C(=O)NCC(F)F)n3c2)n1` [Compound 68, N-(2,2-difluoroethyl)-6-(6′-methyl-[2,2′-bipyridin]-3-yl)imidazo[1,2-a]pyridine-3-carboxamide], the IC50 on HIS-TGFβR2 WT is > 15000 nM; on HIS-TGFβR1 T204D, 4 nM.

Regarding `COc1cccc(-c2ncccc2-c2ccc3ncc(C#N)n3c2)n1` [Compound 17, 6-(6′-methoxy-[2,2′-bipyridin]-3-yl)imidazo[1,2-a]pyridine-3-carbonitrile], the IC50 at HIS-TGFβR2 WT was > 15000 nM; on HIS-TGFβR1 T204D it was 9 nM.

With `Cc1nc(-c2ncccc2-c2ccc3ncc(C#N)n3c2)ccc1F` [Compound 15, 6-(5′-fluoro-6′-methyl-[2,2′-bipyridin]-3-yl)imidazo[1,2-a]pyridine-3-carbonitrile], the concentration for half-maximal inhibition (IC50) is > 15000 nM at HIS-TGFβR2 WT and 10 nM at HIS-TGFβR1 T204D.

`Cc1cccc(-c2nccc(CO)c2-c2ccc3ncc(C#N)n3c2)n1` [Compound 92, 6-(4-(hydroxymethyl)-6′-methyl-[2,2′-bipyridin]-3-yl)imidazo[1,2-a]pyridine-3-carbonitrile]: the half-inhibitory concentration (IC50) is > 15000 nM on HIS-TGFβR2 WT and 487 nM at HIS-TGFβR1 T204D.

Turning to `Cc1cccc(-c2ncccc2-c2ccc3nccnc3c2)n1` [Compound 113, 6-(6′-methyl-[2,2′-bipyridin]-3-yl)quinoxaline], the IC50 on HIS-TGFβR2 WT is > 15000 nM; on HIS-TGFβR1 T204D, 9 nM.

For the compound `N#Cc1cnc2ccc(-c3cccnc3-c3cccc(F)n3)nn12` [Compound 65, 6-(6′-fluoro-[2,2′-bipyridin]-3-yl)imidazo[1,2-b]pyridazine-3-carbonitrile], the IC50 was > 15000 nM on HIS-TGFβR2 WT and 397 nM on HIS-TGFβR1 T204D.

Consider `Cc1cccc(-c2nccc(C(F)F)c2-c2ccc3ncc(C(N)=O)n3c2)n1` [Compound 94, 6-(4-(difluoromethyl)-6′-methyl-[2,2′-bipyridin]-3-yl)imidazo[1,2-a]pyridine-3-carboxamide], for which the figures for the IC50 at HIS-TGFβR2 WT and on HIS-TGFβR1 T204D were > 15000 nM and 15000 nM, respectively.

On to `Cc1cccc(-c2nc(C)ccc2-c2ccc3ncc(C#N)n3c2)n1` [Compound 86, 6-(6,6′-dimethyl-[2,2′-bipyridin]-3-yl)imidazo[1,2-a]pyridine-3-carbonitrile], for which the IC50 is > 15000 nM on HIS-TGFβR2 WT and 187 nM at HIS-TGFβR1 T204D.

In the case of `Cc1cccc(-c2ncccc2-c2ccn3ncc(C(=O)NC4CC4)c3n2)n1` [Compound 128, N-cyclopropyl-5-(6′-methyl-[2,2′-bipyridin]-3-yl)pyrazolo[1,5-a]pyrimidine-3-carboxamide], the IC50 at HIS-TGFβR2 WT was > 15000 nM; on HIS-TGFβR1 T204D, 33 nM.

In the case of `Cc1nc(-c2ncccc2-c2ccn3ncc(C(=O)O)c3n2)ccc1F` [Compound 131, 5-(5′-fluoro-6′-methyl-[2,2′-bipyridin]-3-yl)pyrazolo[1,5-a]pyrimidine-3-carboxylic acid], the IC50 was > 15000 nM at HIS-TGFβR2 WT and 211 nM at HIS-TGFβR1 T204D.

As to `CC(=O)Nc1cn2cc(-c3cccnc3-c3ccc(F)c(C)n3)ccc2n1` [Compound 77, N-(6-(5′-fluoro-6′-methyl-[2,2′-bipyridin]-3-yl)imidazo[1,2-a]pyridin-2-yl)acetamide], the IC50 at HIS-TGFβR2 WT was > 15000 nM; on HIS-TGFβR1 T204D it was 4 nM.

Regarding `Cc1nc(-c2ncccc2-c2ccc3nc(C(N)=O)cn3c2)ccc1F` [Compound 78, 6-(5′-fluoro-6′-methyl-[2,2′-bipyridin]-3-yl)imidazo[1,2-a]pyridine-2-carboxamide], the IC50 on HIS-TGFβR2 WT is > 15000 nM; on HIS-TGFβR1 T204D, 15000 nM.

As to `FC(F)c1cccc(-c2ncccc2-c2ccc3[nH]nc(C(F)F)c3c2)n1` [Compound 118, 3-(difluoromethyl)-5-(6′-(difluoromethyl)-[2,2′-bipyridin]-3-yl)-1H-indazole], the IC50 at HIS-TGFβR2 WT was > 15000 nM; on HIS-TGFβR1 T204D, 427 nM.

Consider `CC(C)c1cccc(-c2ncccc2-c2ccc3ncc(C(N)=O)n3n2)n1` [Compound 64, 6-(6′-isopropyl-[2,2′-bipyridin]-3-yl)imidazo[1,2-b]pyridazine-3-carboxamide], for which the IC50 is > 15000 nM on HIS-TGFβR2 WT and 563 nM on HIS-TGFβR1 T204D.

Regarding `NC(=O)c1cnc2ccc(-c3cccnc3-c3ccc(F)cn3)nn12` [Compound 54, 6-(5′-fluoro-[2,2′-bipyridin]-3-yl)imidazo[1,2-b]pyridazine-3-carboxamide], the results for the IC50 at HIS-TGFβR2 WT and at HIS-TGFβR1 T204D were > 15000 nM and 254 nM, respectively.

Take `Cc1cccc(-c2ncc(F)cc2-c2ccc3ncc(C#N)n3c2)n1` [Compound 81, 6-(5-fluoro-6′-methyl-[2,2′-bipyridin]-3-yl)imidazo[1,2-a]pyridine-3-carbonitrile]: the figures for the IC50 at HIS-TGFβR2 WT and at HIS-TGFβR1 T204D were > 15000 nM and 16 nM, respectively.

In the case of `Cc1cccc(-c2ncccc2-c2ccc3ncc(C(=O)NC4CC4)n3n2)n1` [Compound 75, N-cyclopropyl-6-(6′-methyl-[2,2′-bipyridin]-3-yl)imidazo[1,2-b]pyridazine-3-carboxamide], the IC50 at HIS-TGFβR2 WT was > 15000 nM; on HIS-TGFβR1 T204D, 25 nM.

Turning to `Nc1ncnc2ccc(-c3cccnc3-c3cccc(C(F)F)n3)cc12` [Compound 109, 6-(6′-(difluoromethyl)-[2,2′-bipyridin]-3-yl)quinazolin-4-amine], the 50% inhibitory concentration (IC50) on HIS-TGFβR2 WT was > 15000 nM; at HIS-TGFβR1 T204D it was 2 nM.

In the case of `FC(F)(F)c1cccc(-c2ncccc2-c2ccc3nccnc3c2)n1` [Compound 114, 6-(6′-(trifluoromethyl)-[2,2′-bipyridin]-3-yl)quinoxaline], the concentration for half-maximal inhibition (IC50) at HIS-TGFβR2 WT is > 15000 nM; at HIS-TGFβR1 T204D, 16 nM.

Consider `Cc1cccc(-c2nc(C(F)(F)F)ccc2-c2ccc3ncc(C(N)=O)n3c2)n1` [Compound 90, 6-(6′-methyl-6-(trifluoromethyl)-[2,2′-bipyridin]-3-yl)imidazo[1,2-a]pyridine-3-carboxamide], for which the IC50 on HIS-TGFβR2 WT is > 15000 nM; on HIS-TGFβR1 T204D, 84 nM.

`Nc1ncnc2ccc(-c3cccnc3-c3ccc(F)cn3)nc12` [Compound 104, 6-(5′-fluoro-[2,2′-bipyridin]-3-yl)pyrido[3,2-d]pyrimidin-4-amine]: the IC50 is > 15000 nM on HIS-TGFβR2 WT and 42 nM on HIS-TGFβR1 T204D.

With `Cc1cccc(-c2ncccc2-c2ccc3ncc(C#N)n3n2)n1` [Compound 57, 6-(6′-methyl-[2, 2′-bipyridin]-3-yl) imidazo[1,2-b]pyridazine-3-carbonitrile], the IC50 is > 15000 nM on HIS-TGFβR2 WT and 35 nM at HIS-TGFβR1 T204D.

For the compound `Cc1nc(-c2ncccc2-c2ccn3ncc(C#N)c3n2)ccc1F` [Compound 122, 5-(5′-fluoro-6′-methyl-[2,2′-bipyridin]-3-yl)pyrazolo[1,5-a]pyrimidine-3-carbonitrile], the values for the IC50 at HIS-TGFβR2 WT and on HIS-TGFβR1 T204D were > 15000 nM and 242 nM, respectively.

For `N#Cc1cnc2ccc(-c3cccnc3-c3cccc(C(F)F)n3)cn12` [Compound 28, 6-(6′-(difluoromethyl)-[2,2′-bipyridin]-3-yl)imidazo[1,2-a]pyridine-3-carbonitrile], the IC50 was > 15000 nM on HIS-TGFβR2 WT and 9 nM at HIS-TGFβR1 T204D.

As for `CC(C)c1cccc(-c2ncccc2-c2ccc3ncc(C#N)n3c2)n1` [Compound 31, 6-(6′-isopropyl-[2,2′-bipyridin]-3-yl)imidazo[1,2-a]pyridine-3-carbonitrile], the values for the half-maximal inhibitory concentration (IC50) on HIS-TGFβR2 WT and at HIS-TGFβR1 T204D were > 15000 nM and 307 nM, respectively.

As to `Cc1cc(C)nc(-c2ncccc2-c2ccc3ncc(C(N)=O)n3c2)c1` [Compound 42, 6-(4′,6′-dimethyl-[2,2′-bipyridin]-3-yl)imidazo[1,2-a]pyridine-3-carboxamide], the IC50 was > 15000 nM at HIS-TGFβR2 WT and 21 nM on HIS-TGFβR1 T204D.

On to `NC(=O)c1cnc2ccc(-c3cccnc3-c3ccc(C(=O)O)cn3)cn12` [Compound 27, 3′-(3-carbamoylimidazo[1,2-a]pyridin-6-yl)-[2,2′-bipyridine]-5-carboxylic acid], for which the values for the IC50 at HIS-TGFβR2 WT and on HIS-TGFβR1 T204D were > 15000 nM and 14300 nM, respectively.

`Nc1ncnc2ccc(-c3cccnc3-c3cccc(C4CC4)n3)cc12` [Compound 111]: the 50% inhibitory concentration (IC50) was > 15000 nM at HIS-TGFβR2 WT and 2 nM at HIS-TGFβR1 T204D.

Take `Cc1cccc(-c2ncccc2-c2ccn3ncc(C#N)c3n2)n1` [Compound 119, 5-(6′-methyl-[2,2′-bipyridin]-3-yl)pyrazolo[1,5-a]pyrimidine-3-carbonitrile]: the IC50 on HIS-TGFβR2 WT is > 15000 nM; at HIS-TGFβR1 T204D it was 59 nM.

Take `FC(F)(F)c1cccc(-c2ncccc2-c2ccn3nccc3n2)n1` [Compound 136, 5-(6′-(trifluoromethyl)-[2,2′-bipyridin]-3-yl)pyrazolo[1,5-a]pyrimidine]: the IC50 was > 15000 nM on HIS-TGFβR2 WT and 15 nM on HIS-TGFβR1 T204D.

Take `Cc1nc(-c2ncccc2-c2ccn3ncc(C(=O)NC4COC4)c3n2)ccc1F` [Compound 133, 5-(5′-fluoro-6′-methyl-[2,2′-bipyridin]-3-yl)-N-(oxetan-3-yl)pyrazolo[1,5-a]pyrimidine-3-carboxamide]: the results for the half-maximal inhibitory concentration (IC50) on HIS-TGFβR2 WT and on HIS-TGFβR1 T204D were > 15000 nM and 24 nM, respectively.

Consider `N#Cc1cnn2ccc(-c3cccnc3-c3cccc(C(F)(F)F)n3)nc12` [Compound 121, 5-(6′-(trifluoromethyl)-[2,2′-bipyridin]-3-yl)pyrazolo[1,5-a]pyrimidine-3-carbonitrile], for which the IC50 was > 15000 nM on HIS-TGFβR2 WT and 854 nM at HIS-TGFβR1 T204D.

Regarding `Cc1cccc(-c2ncccc2-c2ccc3ncc(NC(=O)C(F)(F)F)n3c2)n1` [Compound 66, 2,2,2-trifluoro-N-(6-(6′-methyl-[2,2′-bipyridin]-3-yl)imidazo[1,2-a]pyridin-3-yl)acetamide], the IC50 at HIS-TGFβR2 WT is > 15000 nM; on HIS-TGFβR1 T204D, 37 nM.

For orientation: IC50 means the midpoint of a concentration-inhibition curve.
